Test system: NAFLD and IR genes
Experiment: Effects on NAFLD and IR gene expression in the liver
Excerpt: Abbreviations in Table 4-1 and Table 4-2: NAFLD: non-alcoholic fatty liver disease; IR: insulin resistance; DNL: de novo lipogenesis; FA: fatty acid; TG: triglycerides; LPL: lipoprotein lipase; HP: hepatic lipase; CHOL: cholesterol.

`O=C1[C@H](CC[C@H](O)c2ccc(F)cc2)[C@@H](c2ccc(O)cc2)N1c1ccc(F)cc1` [Ezetimibe] was tested, and the “Effect on ACACA (ACC1)” value was “minor up”, the “Effect on ACACB (ACC2)” value was “up” and the “Effect on APOC3” value was “down”. The “Effect on CD36” value was “minor down”, the “Effect on ChREBP (MLX1PL)” value was “up” and the “Effect on DGAT2” value was “minor down”. The “Effect on FAS” value was “down”, the “Effect on LDLR” value was “minor down” and the “Effect on MTP (MTTP1)” value was “up”. The “Effect on PPARα” value was “up”, the “Effect on PPARγ” value was “up” and the “Effect on PPARγ-CoA 1α” value was “up”. The “Effect on PPARγ-CoA 1β (PERC)” value was “up”, the “Effect on SREBP-1c” value was “up” and the “Effect on mTOR” value was “no change”.

From patent US20240207304A1, “Combination Therapies Comprising C/EBP Alpha saRNA” (MiNA Therapeutics Limited, priority 2021, published 2024)
